Series [1] is classed as in vitro ADME, rat (Wistar strain, male). The following applies: rat skin; for F, AZT permeation rate: n = 3; for promotion of AZT permeation through the skin (in words): in vitro, oleic acid vs water, Azone and S-318 vs 10% oleic acid. As to the method: A. The abdominal skin of a rat (Wistar strain, male, 200 g) was removed after shaving and placed between the chambers of a diffusion cell comprising two chambers having an effective permeation area of 0.95 cm^2 and a capacity of 2.3 ml for each chamber. The chamber of the corneum side received an AZT solution to be tested and the other chamber received water. The cell was warmed to 37° C. while the permeation of the drug towards the opposite chamber was measured. The AZT solution contained […] (5 mg/ml) AZT either in water or an aqueous solution of 10% oleic acid. […] The results are plotted In FIG. 1. The permeation rate during the stable permeation state (Fss) was determined as follows from the slope of the plots between 10 and 24 hours:
B. In a manner similar to that described in A, further agents capable of promoting permeation of AZT were searched. The promotion rate by each of the tested agents was expressed in relative terms when the rate of 10% oleic acid is tentatively determined as 1.
C. In the similar manner as in A and B, the permeation of AZT as a function of its concentration (3.7 mM-112 mM) was studied. 112 mM (about 3%) is a preferred concentration of AZT for practical purposes in producing a percutaneous AZT composition. The combination of a) 3% Azone+20% MP or b) 5% S-318+10% OA+20% PG+10% MP was used as a permeation promoting agent.

A short description of series [2]: In vivo study - plasma AZT level by percutaneous (oleic acid pretreated skin) and oral administration of AZT. On the set-up: species or system rat (Wistar strain, male). The following applies: for concentration at 0.5 h / concentration at 1 h / concentration at 2 h / concentration at 4 h / concentration at 6 h / concentration at 8 h / concentration at 24 h: plasma. As to the method: Three male rates of Wistar strain weighing about 200 g was allotted to each group. The abdominal portion of the rat was shaven and pretreated with 10% oleic acid for 24 hours. Then a 1 ml aliquot of a solution containing 0.5% (18.7 mM) AZT and 10% oleic acid in water was applied over 4.9 cm^2 area of the skin by a glass cell secured on the body of the rat. AZT level in the plasma sampled at […], 2, 4, 6, 8 and 24 hours after the administration was determined by HPLC. A control group orally received 0.5 ml water containing 0.6 mg AZT.

For series [3] the following is noted: cited from earlier work.
A short description of series [4]: In vivo study - percutaneous absorption of AZT without pretreatment with 10% oleic acid. Also noted: species or system rat (Wistar strain, male). The following applies: no pretreatment, rat. As to the method:
In a manner similar to that described in Example 2, the possibility of percutaneous absorption of AZT without pretreatment with 10% oleic acid was studied.
As absorption promoting agents, a) an aqueous solution containing 3% Azone and 20% MP, and b) an aqueous solution containing 5% S-318, 10% OA, 20% PG and 10% MP were prepared. AZT was dissolved at 3.7 mM concentration in each of said absorption agents and 1 ml of the resulting solution was applied to the skin of rats in a similar manner as in Example 2.

A further series concerns reverse transcriptases. The following applies: background statement; cited from earlier work.
The mark [5] stands for this setting: 3.7 mM (1 mg/ml) AZT, 3% Azone + 20% MP.
Where [6] appears, read: 3.7 mM (1 mg/ml) AZT, 5% S-318 + 10% OA + 20% PG + 10% MP.
The mark [7] stands for this setting: 18.7 mM (5 mg/ml) AZT, 3% Azone + 20% MP.
Setting [8] is: 18.7 mM (5 mg/ml) AZT, 5% S-318 + 10% OA + 20% PG + 10% MP.
Setting [9] is: 56.2 mM (15 mg/ml) AZT, 3% Azone + 20% MP.
[10] abbreviates: 56.2 mM (15 mg/ml) AZT, 5% S-318 + 10% OA + 20% PG + 10% MP.
The mark [11] stands for this setting: 112 mM (30 mg/ml) AZT, 3% Azone + 20% MP.
[12] abbreviates: 112 mM (30 mg/ml) AZT, 5% S-318 + 10% OA + 20% PG + 10% MP.
The mark [13] stands for this setting: topical or ocular, percutaneous, 1 ml 0.5% AZT + 10% oleic acid, 4.9 cm^2, rat.
Where [14] appears, read: oral, 0.6 mg AZT in 0.5 ml water, rat.
The mark [15] stands for this setting: according to Klecker et al. 1987.

Where two headings read alike, the source gives them in different places.

Take `Cc1cn([C@H]2C[C@H](N=[N+]=[N-])[C@@H](CO)O2)c(=O)[nH]c1=O` [AZT, 3'-azide-3'-deoxythymidine]: the relative promotion rate in series [1] (setting [5]) was found to be 6.2; in series [1] (setting [6]), 4.4; in series [1] (setting [7]) it was 16.4; in series [1] (setting [8]), 14.0; in series [1] (setting [9]), 49.3; in series [1] (setting [10]) it was 53.6. In addition, the figures for the relative promotion rate in series [1] (setting [11]) and in series [1] (setting [12]) were 71.6 and 108, respectively. Further, the “F, AZT permeation rate” value was 0.28 μmol/cm^2 /h in series [1] (setting [5]); 0.20 μmol/cm^2 /h in series [1] (setting [6]); 0.74 μmol/cm^2 /h in series [1] (setting [7]); 0.63 μmol/cm^2 /h in series [1] (setting [8]); 2.22 μmol/cm^2 /h in series [1] (setting [9]); 2.41 μmol/cm^2 /h in series [1] (setting [10]). In addition, the “F, AZT permeation rate” value in series [1] (setting [11]) is 3.22 μmol/cm^2 /h; in series [1] (setting [12]), 4.85 μmol/cm^2 /h. The “permeation rate during the stable permeation state (Fss)” value in series [1] (37° C, 18.7 mM (5 mg/ml) AZT in 10% oleic acid, slope between 10 and 24 hours) was 0.045 μmol/cm^2 /h. In series [2] (applied to rat skin as a simple water solution (data not shown)), the “percutaneous absorption of AZT” value is on record as “not observed at all”. For the same compound, in series [2] (in the presence of oleic acid, rat), the “percutaneous absorption of AZT, detection in plasma” value was “could be detected in the plasma over 24 hours”. Further, the “drug level in the plasma after oral administration” value in series [2] (oral, 0.6 mg AZT, rat) is on record as “undetectable at 6 hours after the administration”. Further, the concentration at 0.5 h in series [2] (setting [13]) was found to be 200 nM; in series [2] (setting [14]), 3100 nM. For the same compound, the concentration at 1 h was 600 nM in series [2] (setting [13]) and 2500 nM in series [2] (setting [14]). The results for the concentration at 2 h in series [2] (setting [13]) and in series [2] (setting [14]) were 700 nM and 500 nM, respectively. Moreover, the concentration at 4 h came out at 1500 nM in series [2] (setting [13]) and 200 nM in series [2] (setting [14]). Besides, the concentration at 6 h in series [2] (setting [13]) was 1500 nM; in series [2] (setting [14]) it was under 100 nM. Moreover, the concentration at 8 h in series [2] (setting [13]) was 1500 nM; in series [2] (setting [14]), under 100 nM. The concentration at 24 h in series [2] (setting [13]) was 4000 nM; in series [2] (setting [14]) it was under 100 nM. Also, the “clearance (Cltot)” value in series [3] (setting [15]) was 78 L/h. The “plasma AZT level required for AIDS treatment (Css)” value in series [3] (setting [15]) is 1000 nM. The “maintenance of an adequate AZT level in blood” value in series [3] (conventional oral administration, 5 mg/kg every 4 hours, Klecker et al. 1987) is reported as “impossible to maintain an adequate AZT level in blood”. For the same compound, the “AZT level in the plasma” value in series [4] (3.7 mM AZT with a) 3% Azone + 20% MP or b) 5% S-318 + 10% OA + 20% PG + 10% MP) was “a high AZT level in the plasma was achieved over a period of 10 hours”. The “efficient penetration of AZT through the skin” value in series [4] (3.7 mM AZT, promoting agent a) 3% Azone + 20% MP) is on record as “especially remarkable”. Also, the “inhibition of reverse transcriptases” value in the series with reverse transcriptases is given as “effective inhibitor of reverse transcriptases”.
For the compound `CCCCCCCCCCCCN1CCCCCC1=O` [Azone, 1-dodecylazacycloheptane-2-one], in series [1], the “promotion of AZT permeation through the skin (in words)” value is “greatly accelerated”.
On the same count and under the same terms, the value for `CCCCCCCC/C=C\CCCCCCCC(=O)O` [oleic acid] was “promoted permeation of AZT through the skin”.

These data come from patent US5248674A, “Percutaneous administration of 3'-azide'-deoxythymidine” (Nelson-Sumisho Co., Ltd., priority 1989, dated 1993).
